Experiments:
[1] = biological target: T1, EGFR phosphorylation (P-EGFR) (Homo sapiens, UniProt P00533); assay: Western blot of EGF-stimulated EGFR phosphorylation in A549 cells; type: cell-based
T1 construct: endogenous in cells; host or cells: A549
Method: (§1) A549 cells were chosen due to their elevated expression of EGFR. […] The ability of M-2-5 to inhibit EGF-stimulated tyrosine phosphorylation of EGFR, as well as downstream AKT and ERK pathways in a dose-dependent manner was then investigated.
(§2) A549 cells were seeded into a 6-well plate at a concentration of 1×10^5 cells/well. After 12 h attachment at 37° C. and 5% CO2, the cells were starved overnight in serum-reduced DMEM followed by treatment with different concentration of M-2-5 for 4 h. […] Subsequently, the cells were incubated on ice for 10 min and centrifuged at 14,000×g at 4° C. for 10 min. An equal amount of protein was run on 4˜12% Bis-Tris gels, transferred to polyvinylidene difluoride membranes (Millipore) and western blotted with anti-phosphorylated EGFR, anti-phosphorylated AKT, anti-phosphorylated ERK and GAPDH. The experiments were conducted in triplicates and repeated for three times.

[2] = tested on: Human Embryonic Kidney HEK293 cells
[3] = tested on: ERK phosphorylation (P-ERK); assay: Western blot of downstream ERK phosphorylation in A549 cells; type: cell-based; conditions: starved A549 cells, 4 h pretreatment, EGF 100 ng/mL
Method: as §1, §2

pronase = assay: Enzymatic stability assay toward pronase; type: in vitro ADME; conditions: 0.1 mg/mL pronase, 100 mM ammonium bicarbonate buffer, 37° C., 20 h
Method: As M-2-5 is a promising ligand to block EGFR signaling in vitro, its enzymatic stability toward pronase (the enzyme theoretically digesting peptides into single amino acids), which is critical for their potential biological activity in vivo was evaluated.
Cyclic γ-AApeptides M-2-5 (0.1 mg/mL) were incubated with 0.1 mg/mL protease in 100 mM ammonium bicarbonate buffer (pH 7.8) at 37° C. for 20 h. Then, the reaction mixtures were concentrated in a speed vacuum to remove water and ammonium bicarbonate. The resulting residues were re-dissolved in H2O/MeCN and analyzed on a Waters analytical HPLC system.

[4] = tested on: AKT phosphorylation (P-AKT); assay: Western blot of downstream AKT phosphorylation in A549 cells; type: cell-based; conditions: starved A549 cells, 4 h pretreatment, EGF 100 ng/mL
Method: as §1, §2

P-EGFR = biological target: T2, P-EGFR (Homo sapiens, UniProt P00533); assay: Western blot of P-EGFR in A549 tumor lysates; type: in vivo, mice; conditions: M-2-5 50 mg/kg
T2 construct: from tissue; host or cells: A549 xenograft tumours from nude mice
Method: (§3) After another 6 days post injection, mice were sacrificed, and tumors were resected. […] To confirm the expression level of P-EGFR and downstream signaling, the total proteins were extracted from tumor tissues in each group and subjected to immunoblotting of P-EGFR, P-ARK and P-ERK. […] In addition, the phosphorylation level of EGFR in the A549 tumor sections was analyzed by immunohistochemical staining.
(§4) The supernatant was transferred to a new tube and samples were centrifuged at 14,000 rpm for 15 min at 4° C. to remove any remaining insoluble material. The supernatant containing soluble proteins was transferred to a new tube and an aliquot was taken for the quantification and the further western blot analysis.

P-ERK = assay: Western blot of P-ERK in A549 tumor lysates; type: in vivo, mice; conditions: M-2-5 50 mg/kg, compared to C225
Method: (§5) Based upon the observed strong inhibition of cell proliferation and migration, the ability to inhibit EGFR cell signaling pathways in vitro, as well as the remarkable stability against proteolytic degradation, the antitumor activity of M-2-5 in a A549 lung tumor xenograft mouse model was evaluated in vivo. […] After another 6 days post injection, mice were sacrificed, and tumors were resected. […] To confirm the expression level of P-EGFR and downstream signaling, the total proteins were extracted from tumor tissues in each group and subjected to immunoblotting of P-EGFR, P-ARK and P-ERK. […] In addition, the phosphorylation level of EGFR in the A549 tumor sections was analyzed by immunohistochemical staining. […] Together with its similar function to monoclonal antibody and its high resistance toward proteolytic degradation, it could be further investigated for promising clinical anti-cancer drug development.
For the detection of phosphorylated EGFR, AKT and ERK in tumors in vivo, a portion of the tumor (80 mg) was immersed in 500 μL extraction buffer (50 mM Tris-HCl (pH 7.4), 150 mM NaCl, 1% NP-40, 0.25% Na-deoxycholate, Protease Inhibitor, SDS 0.1-2%), and tubes were vortexed briefly. […] The supernatant containing soluble proteins was transferred to a new tube and an aliquot was taken for the quantification and the further western blot analysis.

[5] = Body weight of A549 tumor xenografted mice; type: in vivo; conditions: 10 and 50 mg/kg intraperitoneal, FIG. 10
Method: as §5
A549 cells were harvested, resuspended in PBS, and injected subcutaneously into 4-6 weeks old Male BALB/c nude mice. When the tumors reach an average size of 100 mm^3, the mice were then randomized divided into four treatment groups: Control (PBS), C-225 (40 mg/kg), M-2-5 (10 mg/kg) and M-2-5 (50 mg/kg). […] The tumor volumes were determined by measuring length (l) and width (w) and calculating volume (V=lw^2/2).

A549 cells [6] = assay: Scratch-wound (cell wound healing) assay; type: cell-based; conditions: A549, 25 μM, 30 h
Method: (§6) M-2-5's inhibitory effect on cell migration of A549 cells, which plays an important role in tumor metastatic activity, was then investigated. First, a scratch-wound assay was established to investigate the cell migratory behaviors.
A549 cells in good condition were seeded into a 12-well plate at a concentration of 5×10^4 cells/well. After 24 h attachment at 37° C. and 5% CO2, they reached confluence as a monolayer. The monolayer was scratched gently and slowly with a new 200 μL pipette tip across the center of the well straightly. After scratching, the well was washed twice with medium to remove the detached cells. The well was then replenished with fresh medium containing different concentration of M-2-5. The photo was taken for the scratched monolayer and then captured again after 30 h for the same wound. The wound width was measured by ImageJ. The experiments were conducted in triplicates and repeated for three times.

[7] = tested on: A549 lung tumor xenograft; assay: Antitumor study in A549 lung tumor xenograft mouse model; type: in vivo, mice; conditions: every two days for seven times
A549 cells [8] = assay: EGF-driven cell proliferation assay (CCK-8); type: cell-based; conditions: A549, EGF 100 ng/mL, 48 h
Method: A549 cells were cultured in high-glucose DMEM (Gibco) medium containing 10% fetal bovine serum and 1% penicillin/streptomycin in an atmosphere of 5% CO2 at 37° C. A549 cells in good condition were seeded into a 96-well plate at a concentration of 1×10^3 cells/well in 100 of complete growth medium. After 24 hours of attachment at 37° C. and 5% CO2, medium was replaced by fresh serum reduced DMEM and cell were serum-starved overnight. […] After 48 h, the CCK-8 reagents were added according to the manufacturer's recommendations.

P-AKT = assay: Western blot of P-AKT in A549 tumor lysates; type: in vivo, mice; conditions: M-2-5 50 mg/kg
Method: as §3, §4

A549 cells [9] = assay: Transwell migration assay; type: cell-based; conditions: A549, EGF + M-2-5 25 μM, 12 h
Method: as §6
A549 cells in good condition were seeded into a 100 mm dish at a concentration of 5×10^5 cells. After overnight attachment at 37° C. and 5% CO2, culture medium was replaced with serum reduced DMEM medium, and the dish was returned to incubator for 24 h. Cells were the detached and resuspended in DMEM at a concentration of 1×10^6 cells/mL. Next, 100 μL of cell solution was plated on top of the filter membrane in a transwell insert and incubated for 10 minutes at 37° C. and 5% CO2 to allow the cells to settle down. Subsequently, 600 μL of the desired chemo-attractant was added very carefully into the bottom of the lower chamber in a 24-well plate. The culture was incubated for 12 h, and then the transwell insert was removed from the plate. A cotton-tipped applicator was used as many times as needed to carefully swab the inside of each insert. Cells were fixed by 70% ethanol, stained by 0.2% crystal violet and visualized by microscope. Transwell data was determined by the number of the migrated cells and the value from parental cells was arbitrarily set at 100%. The experiments were conducted in triplicates and repeated for three times.

PAMPA-BBB assay = conditions: pH 7.4
Method: (§7) Carbamazepine and Antipyrine were used as the positive and negative control compounds for the assay.
The parallel artificial membrane permeability assay—blood brain barrier (PAMPA-BBB) assay procedure was realized by using a method developed by pION. All liquid handling steps for the PAMPA assay are performed on a TECAN Fredom EVO150 robot and analyzed by the pION's PAMPA Evolution Software. The pION's PAMPA-BBB includes the brain sink buffer (BSB), the BBB-1 Lipid Solution and the Stirwell™ PAMPA Sandwich plate, preloaded with magnetic disks. 4 μL of lipid were transferred in the acceptor well, followed by addition of 200 μL of BSB (pH 7.4). […] The PAMPA sandwich plate was assembled and placed on the Gut-Box™ and stirred with 60 μm Aqueous Boundary Layer (ABL) settings for 1 hour. The distribution of the compounds in the donor and acceptor buffers (150 μL aliquot) was determined by UV spectra measurement from 200 to 500 nm using the Tecan infinite M-1000 pro microplate reader. […] Experiments were repeated three times.

PAMPA-GIT assay = conditions: pH 5.0, 6.2 and 7.4 (FIG. 8B)
Method: as §7
The PAMPA-GIT assay procedure was realized by using a method developed by pION. All liquid handling steps for the PAMPA assay are performed on a TECAN Fredom EVO150 robot and analyzed by the pION's PAMPA Evolution Software. The pION's GIT PAMPA includes the acceptor sink buffer (ASB), the GIT-0 Lipid Solution and the Stirwell™ PAMPA Sandwich plate, preloaded with magnetic disks. 4 μL of lipid were transferred in the acceptor well, followed by addition of 200 μL of ASB (pH 7.4). […] The PAMPA sandwich plate was assembled and placed on the Gut-Box™ and stirred with 40 μm ABL settings for 30 min. The distribution of the compounds in the donor and acceptor buffers (150 μL aliquot) was determined by UV spectra measurement from 200 to 498 nm using the Tecan infinite M-1000 pro microplate reader. Then the Permeability (Papp, 10 ^6 cm/s) of each compound was calculated by the pion PAMPA evolution software. The assays were repeated three times.

[10] = cited from earlier work
[11] = general statement on the positive control; cited from earlier work

T1 sequence (P00533 25-1210): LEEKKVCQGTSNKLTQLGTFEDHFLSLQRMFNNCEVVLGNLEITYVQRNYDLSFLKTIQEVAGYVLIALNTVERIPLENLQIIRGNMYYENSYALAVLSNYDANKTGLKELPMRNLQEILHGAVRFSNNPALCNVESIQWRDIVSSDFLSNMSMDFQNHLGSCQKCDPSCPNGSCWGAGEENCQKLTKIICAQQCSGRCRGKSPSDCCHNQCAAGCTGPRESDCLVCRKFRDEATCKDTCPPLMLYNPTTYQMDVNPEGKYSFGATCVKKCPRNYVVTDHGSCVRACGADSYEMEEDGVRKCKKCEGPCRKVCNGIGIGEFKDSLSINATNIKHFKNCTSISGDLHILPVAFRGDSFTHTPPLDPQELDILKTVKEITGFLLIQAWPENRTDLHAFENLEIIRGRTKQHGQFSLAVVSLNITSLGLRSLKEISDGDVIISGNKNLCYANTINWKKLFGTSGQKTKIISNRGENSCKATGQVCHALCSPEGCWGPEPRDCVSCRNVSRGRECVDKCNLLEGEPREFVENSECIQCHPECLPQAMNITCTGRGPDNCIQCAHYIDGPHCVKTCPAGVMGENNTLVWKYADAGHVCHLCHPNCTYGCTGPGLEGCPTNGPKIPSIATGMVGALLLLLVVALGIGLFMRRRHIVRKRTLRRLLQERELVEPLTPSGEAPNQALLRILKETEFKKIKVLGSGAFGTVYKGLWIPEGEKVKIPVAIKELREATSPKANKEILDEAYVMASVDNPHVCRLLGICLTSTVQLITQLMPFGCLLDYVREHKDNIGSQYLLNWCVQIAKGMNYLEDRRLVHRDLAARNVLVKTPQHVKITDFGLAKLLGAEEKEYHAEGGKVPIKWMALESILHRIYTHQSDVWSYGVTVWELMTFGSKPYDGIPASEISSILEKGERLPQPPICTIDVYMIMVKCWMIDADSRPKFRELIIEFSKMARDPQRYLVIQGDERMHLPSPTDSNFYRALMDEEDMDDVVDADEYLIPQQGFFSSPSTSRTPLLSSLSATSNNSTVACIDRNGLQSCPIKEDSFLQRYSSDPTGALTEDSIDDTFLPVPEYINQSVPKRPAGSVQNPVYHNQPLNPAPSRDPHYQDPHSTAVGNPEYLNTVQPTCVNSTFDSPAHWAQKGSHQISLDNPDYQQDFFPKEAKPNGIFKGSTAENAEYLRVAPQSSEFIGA
T2 sequence (P00533 25-1210): as above

Q: For `COc1cc(CC(=O)N2CC(=O)N[C@@H](Cc3ccccc3)CN(CC(N)=O)C(=O)CCSCc3ccc(cc3)C(=O)N[C@@H](CCCCN)CN(C(=O)CCC3CCCCC3)CC(=O)N[C@@H](Cc3ccccc3)CN(C(=O)CCc3ccccc3)CC(=O)N[C@@H](Cc3ccccc3)C2)cc(OC)c1` [M-2-5], which IC50 [1] is on record?
A: Its IC50 is 17.7 µM.

Q: And the “effect on EGF-induced EGFR activation” value ([1]; starved A549 cells, 20 μM M-2-5 for 4 h, EGF 100 ng/mL (FIG. 5C, 5D))?
A: The value was “blocked a vast majority of EGFR activation”.

Q: And the “inhibition of EGF stimulation of EGFR phosphorylation at 25 μM or more” value ([1]; starved A549 cells, 4 h pretreatment, 25 μM or more)?
A: The value was “almost complete blockage”.

Q: And the “selectivity toward cancer cells over normal cells” value ([2]; A549 versus HEK293)?
A: The value was about 8 fold.

Q: And the IC50 ([2]; read-out: IC50 for HEK293 cells, no EGF stimulation, CCK-8)?
A: Its IC50 is 62.1 µM.

Q: What about the IC50 [3] of the same compound?
A: Its IC50 is 11.2 µM.

Q: And the “degradation by pronase monitored by HPLC” value (pronase)?
A: The value was “no detectable degradation”.

Q: And the IC50 [4]?
A: The IC50 was 8.75 µM.

Q: And the “P-EGFR level in tumor tissue” value (P-EGFR)?
A: The value was “dramatic decrease”.

Q: What about the “inhibition of P-ERK in tumor tissue” value (P-ERK) of the same compound?
A: Its value is “slightly weaker efficiency”.

Q: And the body weight gain [5]?
A: Its body weight gain is “did not affect the body weight gain”.

Q: And the “percent of wound closed” value (A549 cells [6])?
A: Its value is 15.2%.

Q: What about the “decrease of wound closed compared with untreated control” value (A549 cells [6]; control 55.3%) of the same compound?
A: The value was 40%.

Q: And the “tumor volume versus PBS group” value ([7]; 10 mg/kg intraperitoneal)?
A: The value was “no significant differences”.

Q: And the “tumor growth versus PBS group” value ([7]; 50 mg/kg intraperitoneal)?
A: Its value is “significant suppression of tumor growth”.

Q: What about the IC50 (A549 cells [8]; CCK-8, read-out: IC50 of antiproliferative activity on EGF-stimulated cells) of the same compound?
A: Its IC50 is 8.23 µM.

Q: And the “suppression of EGF-driven cell proliferation at ˜10” value (A549 cells [8]; at ˜10 (unit not given), versus control without EGF)?
A: Its value is “complete suppression of cell proliferation”.

Q: And the “P-AKT level in tumor tissue” value (P-AKT)?
A: The value was “dramatic decrease”.

Q: What about the “number of migrating cells relative to untreated control (100%)” value (A549 cells [9]) of the same compound?
A: The value was 64.8%.

Q: And the Papp at 1 h, 50 μM (PAMPA-BBB assay)?
A: The Papp at 1 h, 50 μM was 266.

Q: And the “Papp, PAMPA-GIT (in words)” value (PAMPA-GIT assay)?
A: Its value is “favorable Papp without pH-dependence”.

Q: For `Cc1cc(=O)n(-c2ccccc2)n1C` [Antipyrine], which “Papp values (background)” value [10] is on record?
A: The value was “low Papp values”.

Q: With `NC(=O)N1c2ccccc2C=Cc2ccccc21` [Carbamazepine] as the compound, how does the “absorption in the human gastrointestinal tract” value [11] read?
A: Its value is over 90%.

Reference: US12612431B2, “Cyclic compounds for treating cancer” (University of South Florida, priority 2021, dated 2026)
